According to patent US9328123B2, “Rotenone derivatives and a use thereof” (priority 2012, dated 2016):

Experiments:
3T3-L1 preadipocytes = test: Inhibition of differentiation of 3T3-L1 preadipocyte to adipocyte (oil red O staining); assay type: cell-based, mouse; conditions: 3T3-L1 cell line, concentration of 2 μM
Protocol: To investigate inhibition effect on adipocyte differentiation in 3T3-L1 preadipocytes, mouse embryo fibroblasts were cultured in DMEM supplemented with 10% FBS to confluency. Two days later (Day 0), the cells were stimulated for the differentiation in DMEM, the differentiation medium supplemented with 10% FBS, 0.5 mM 3-isobutyl-1-methyl-xanthine, […], and […] (Day 2). For the next 6 days, the cells were cultured in DMEM supplemented with 10% FBS and 2 mM insulin (Day 8), followed by further culture in DMEM supplemented with 10% FBS for […] (Day 8). Every medium was added with 100 IU/ml of penicillin and […] of streptomycin. The cells were cultured in the presence of 95% air and 5% CO2. During the whole culture period (Day 0˜Day 8), the treatment of the rotenoisin A and B (2, 0.2, 0.02 uM) of the present invention was performed by the conventional method known to those in the art (Liu, Q.; Shin, E.; Ahn, M. J.; Hwang, B. Y.; Lee, M. K. Nat. Prod. Sci. 2011, 17, 212.) with slight modification. […]
Particularly, intracellular fat lump was stained with oil red O. 8 days after the induction of cell differentiation, the cells were washed with […] twice, followed by fixing in 10% formalin for 1 hour at room temperature. […] For quantitative analysis, oil red O was dissolved with isopropyl alcohol, followed by measuring OD500 using an ELISA reader.

pig pancreatic lipase = pig pancreatic lipase (Sus scrofa (Pig), UniProt P00591); test: Pancreatic lipase inhibiting activity (p-nitrophenylbutyrate hydrolysis); assay type: biochemical
Chain of pig pancreatic lipase (P00591 whole entry): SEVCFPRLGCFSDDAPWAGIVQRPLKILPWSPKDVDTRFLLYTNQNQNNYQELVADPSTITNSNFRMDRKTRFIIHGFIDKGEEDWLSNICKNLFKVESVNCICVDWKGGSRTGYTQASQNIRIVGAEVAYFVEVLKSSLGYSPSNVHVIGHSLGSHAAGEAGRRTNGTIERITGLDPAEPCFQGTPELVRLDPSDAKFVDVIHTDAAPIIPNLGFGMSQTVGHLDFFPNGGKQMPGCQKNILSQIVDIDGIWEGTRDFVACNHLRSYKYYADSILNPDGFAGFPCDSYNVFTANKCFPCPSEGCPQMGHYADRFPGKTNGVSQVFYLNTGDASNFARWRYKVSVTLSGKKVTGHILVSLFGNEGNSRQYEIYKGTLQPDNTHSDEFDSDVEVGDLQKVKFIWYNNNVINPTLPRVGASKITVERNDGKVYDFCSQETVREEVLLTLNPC
Protocol: To investigate obesity treating effect of the novel rotenoisin A and B, each represented by formula 2 and formula 3 isolated and purified in <Example 2>, pancreatic lipase inhibiting activity of the same was measured.
Particularly, pancreatic lipase inhibiting activity was measured by the conventional method known to those in the art (Kim, J. H.; Kim, H. J.; Park, H. W.; Youn, S. H.; Choi, D. Y.; Shin, C. S. FEMS Microbiol. Lett. 2007, 276, 93.). To prepare the enzyme buffer, […] (10 units) of pig pancreatic lipase solution (Sigma, St. Louis, Mo.) and 1 mM EDTA (pH 6.8) were mixed with 10 mM MOPS (morpholinepropanesulphonic acid), which was added to […] of tris buffer (100 mM Tris-HCl and 5 mM CaCl2, pH 7.0). Then, […] of the rotenoisin A or B of the present invention was mixed with the prepared enzyme buffer at the experimental concentration. […] 20 mL of substrate solution containing 20 mM p-nitrophenylbutyrate dissolved in dimethyl formaide was added to the enzyme buffer, followed by culture for 15 minutes at 37° C. that was the temperature adequate for enzyme reaction. Pancreatic lipase activity was measured by measuring the hydrolysis of p-nitrophenylbutyrate into p-nitrophenol using an ELISA reader (Infinite F200; Tecan Austria GmBH, Grodig, Austria).

| Compound | adipocyte differentiation inhibiting activity (3T3-L1 preadipocytes; Day 8) | inhibition at 2 µM (3T3-L1 preadipocytes; Mus musculus, 192 h, Day 8, read-out: adipocyte differentiation inhibiting activity) | IC50 (pig pancreatic lipase) |
| --- | --- | --- | --- |
| C=C(C)[C@H]1Cc2c(ccc3c2O[C@@H]2COc4cc(OC)c(OC)cc4[C@@H]2C32CO2)O1 (some centres unmarked) [rotenoisin A] | approximately 70% | ~70% | 6.3 ± 0.3 µM |
| C=C(C)[C@H]1Cc2c(ccc3c2O[C@@H]2COc4cc(OC)c(OC)cc4[C@@H]2[C@]32CC3O[C@]3(O)[C@@H](O)O2)O1 (some centres unmarked) [rotenoisin B] |  |  | 28.4 ± 1.2 µM |
| C=C(C)[C@H]1Cc2c(ccc3c2O[C@@H]2COc4cc(OC)c(OC)cc4[C@@H]2C3=O)O1 [rotenone] |  |  | > 500 µM |
